How the values were obtained:
IKKb = biological target: T1, IKKb (Homo sapiens, UniProt O14920); settings: via binding to Cys179; cited from earlier work
T1 sequence (O14920 1-756): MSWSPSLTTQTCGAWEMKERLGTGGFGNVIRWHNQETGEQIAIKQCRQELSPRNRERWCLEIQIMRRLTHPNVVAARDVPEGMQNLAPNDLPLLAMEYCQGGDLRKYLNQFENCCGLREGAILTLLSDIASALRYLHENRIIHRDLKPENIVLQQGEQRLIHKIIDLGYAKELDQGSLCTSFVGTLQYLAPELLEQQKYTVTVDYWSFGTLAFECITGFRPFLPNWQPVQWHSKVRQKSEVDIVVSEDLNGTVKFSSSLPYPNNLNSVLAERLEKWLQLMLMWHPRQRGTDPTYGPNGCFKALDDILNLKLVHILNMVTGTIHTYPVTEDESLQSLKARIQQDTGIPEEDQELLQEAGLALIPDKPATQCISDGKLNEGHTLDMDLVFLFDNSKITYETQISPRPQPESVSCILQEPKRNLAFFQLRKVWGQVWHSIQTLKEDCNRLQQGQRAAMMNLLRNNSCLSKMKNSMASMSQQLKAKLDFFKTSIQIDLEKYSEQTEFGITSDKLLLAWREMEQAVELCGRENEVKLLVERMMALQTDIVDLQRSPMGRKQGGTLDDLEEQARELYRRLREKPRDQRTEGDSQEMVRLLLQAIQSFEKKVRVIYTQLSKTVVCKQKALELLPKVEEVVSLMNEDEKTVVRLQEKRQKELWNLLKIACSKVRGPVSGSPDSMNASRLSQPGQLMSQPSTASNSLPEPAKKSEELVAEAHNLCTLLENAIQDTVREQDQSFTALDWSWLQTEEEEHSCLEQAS

heme oxygenase-1 (HO-1) = settings: at nanomolar concentrations; in vitro and in vivo; Liby et al. (2005); cited from earlier work
[1] = cited from earlier work
[2] = test system: Stage IV pancreatic cancer; settings: compared with the combination; cited from earlier work
[3] = mice; cited from earlier work
NF-κB = settings: human leukemia cell lines and patient samples; Shishodia et al. (2006); cited from earlier work
[4] = monkeys, equivalent dosages orally in gelatin capsules; Form B versus Form A

Q: With `CC1(C)CC[C@]2(C(=O)n3ccnc3)CC[C@]3(C)[C@H](C(=O)C=C4[C@@]5(C)C=C(C#N)C(=O)C(C)(C)[C@@H]5CC[C@]43C)[C@@H]2C1` [CDDO-Im] as the compound, how does the “Inhibition of IKKb activity” value (IKKb) read?
A: direct inhibitors

Q: And the “Expression of heme oxygenase-1 (HO-1) enzyme” value (heme oxygenase-1 (HO-1))?
A: rapidly increase the expression

Q: For `Nc1ccn([C@@H]2O[C@H](CO)[C@@H](O)C2(F)F)c(=O)n1` [gemcitabine, 2′,2′-difluoro-2′-deoxycytidine], which Maximum administered dose ([1]; humans) is on record?
A: 1000 mg/m^2

Q: What about the “Dose reported to be tolerated in patients” value ([1]; prolonged infusion for up to 12 hours) of the same compound?
A: 10 mg/m^2/min

Q: What about the “Clinical activity of gemcitabine alone (historical)” value [2] of the same compound?
A: has not produced this level of clinical activity

Q: And the Maximum tolerated dose [3]?
A: 300 mg/kg/dose

Q: With `CC1(C)CC[C@]2(C(=O)O)CC[C@]3(C)[C@H](C(=O)C=C4[C@@]5(C)C=C(C#N)C(=O)C(C)(C)[C@@H]5CC[C@]43C)[C@@H]2C1` [CDDO, 2-cyano-3,12-dioxooleana-1,9(11)-dien-28-oic acid] as the compound, how does the “Expression of heme oxygenase-1 (HO-1) enzyme” value (heme oxygenase-1 (HO-1)) read?
A: rapidly increase the expression

Q: With `COC(=O)[C@]12CCC(C)(C)CC1C1C(=O)C=C3[C@@]4(C)C=C(C#N)C(=O)C(C)(C)[C@@H]4CC[C@@]3(C)[C@]1(C)CC2` (stereo partly shown) [CDDO-Me] as the compound, how does the “Inhibition of IKKb activity” value (IKKb) read?
A: direct inhibitors

Q: And the “Inhibition of constitutive and inducible NF-κB” value (NF-κB)?
A: potently inhibits

Q: With `COC(=O)[C@]12CCC(C)(C)C[C@H]1[C@H]1C(=O)C=C3[C@@]4(C)C=C(C#N)C(=O)C(C)(C)[C@@H]4CC[C@@]3(C)[C@]1(C)CC2` [Form B] as the compound, how does the Bioavailability [4] read?
A: surprisingly better than that of Form A

— patent publication US20090048205A1, “COMBINATION THERAPY WITH SYNTHETIC TRITERPENOIDS AND GEMCITABINE” (priority 2007, published 2009)
